Several values for one entry are separate records, joined by “and”; a condition that tells them apart may be missing. Equal values may be shown once.
What was measured:
Format in all cases: biochemical
PI3K α = molecular target: T1, PI3K α (Homo sapiens, UniProt P42336); assay: In vitro IC50, PI3K α
T1 construct: purchased Upstate
Description: (§1) An exemplary system is PI 3-Kinase (human) HTRF™ Assay from Upstate.

PI3K δ = PI3K δ (Homo sapiens, UniProt O00329); assay: In vitro IC50, PI3K δ; set-up: purchased Upstate
PI3K δ, sequence (O00329 whole entry): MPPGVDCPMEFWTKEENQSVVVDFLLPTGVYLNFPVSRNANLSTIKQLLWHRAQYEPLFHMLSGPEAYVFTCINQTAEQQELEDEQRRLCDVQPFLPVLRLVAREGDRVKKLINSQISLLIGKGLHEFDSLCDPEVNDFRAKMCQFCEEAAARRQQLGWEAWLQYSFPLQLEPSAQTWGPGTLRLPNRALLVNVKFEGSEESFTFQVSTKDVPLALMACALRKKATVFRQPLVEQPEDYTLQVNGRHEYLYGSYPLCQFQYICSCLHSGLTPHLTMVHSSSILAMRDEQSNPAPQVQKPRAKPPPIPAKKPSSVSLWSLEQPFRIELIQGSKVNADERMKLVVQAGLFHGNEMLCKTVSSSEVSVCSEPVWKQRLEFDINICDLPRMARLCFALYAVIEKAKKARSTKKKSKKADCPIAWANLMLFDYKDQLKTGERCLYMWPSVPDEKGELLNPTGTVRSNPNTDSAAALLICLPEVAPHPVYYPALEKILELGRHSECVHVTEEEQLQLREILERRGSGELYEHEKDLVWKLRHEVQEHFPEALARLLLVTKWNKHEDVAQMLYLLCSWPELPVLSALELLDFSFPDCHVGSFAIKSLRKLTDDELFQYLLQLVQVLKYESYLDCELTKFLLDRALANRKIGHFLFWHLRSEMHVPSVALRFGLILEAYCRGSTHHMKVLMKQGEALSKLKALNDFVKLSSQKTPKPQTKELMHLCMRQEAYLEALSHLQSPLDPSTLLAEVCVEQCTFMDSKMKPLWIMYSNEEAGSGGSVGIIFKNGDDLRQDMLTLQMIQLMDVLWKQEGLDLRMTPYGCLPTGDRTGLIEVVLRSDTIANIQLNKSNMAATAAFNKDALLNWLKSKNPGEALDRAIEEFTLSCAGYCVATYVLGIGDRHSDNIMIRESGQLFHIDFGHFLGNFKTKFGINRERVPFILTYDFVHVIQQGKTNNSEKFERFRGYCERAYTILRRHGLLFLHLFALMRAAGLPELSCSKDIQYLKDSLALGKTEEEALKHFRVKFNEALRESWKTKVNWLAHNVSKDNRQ
PI3K δ, sequence (P27986 whole entry partner): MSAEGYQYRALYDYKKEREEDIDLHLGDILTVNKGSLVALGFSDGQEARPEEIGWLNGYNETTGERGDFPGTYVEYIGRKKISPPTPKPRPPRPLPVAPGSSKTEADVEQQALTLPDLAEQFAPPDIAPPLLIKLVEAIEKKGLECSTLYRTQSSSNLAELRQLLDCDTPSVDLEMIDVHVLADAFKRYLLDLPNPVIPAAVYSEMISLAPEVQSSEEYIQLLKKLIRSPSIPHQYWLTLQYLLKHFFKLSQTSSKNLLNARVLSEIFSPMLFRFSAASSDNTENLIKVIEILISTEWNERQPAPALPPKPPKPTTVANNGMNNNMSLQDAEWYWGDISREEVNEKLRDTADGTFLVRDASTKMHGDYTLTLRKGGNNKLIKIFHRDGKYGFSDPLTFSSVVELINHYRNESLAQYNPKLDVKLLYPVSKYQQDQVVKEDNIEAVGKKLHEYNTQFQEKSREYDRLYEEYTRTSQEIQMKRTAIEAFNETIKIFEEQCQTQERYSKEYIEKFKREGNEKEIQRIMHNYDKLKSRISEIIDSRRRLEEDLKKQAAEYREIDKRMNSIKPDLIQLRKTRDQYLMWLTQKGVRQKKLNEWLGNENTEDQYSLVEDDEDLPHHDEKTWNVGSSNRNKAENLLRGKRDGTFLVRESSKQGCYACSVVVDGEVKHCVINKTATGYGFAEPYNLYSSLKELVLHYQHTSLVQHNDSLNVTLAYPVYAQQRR
Description: as §1

PI3K γ = molecular target: T2, PI3K γ (Homo sapiens, UniProt P48736); assay: In vitro IC50, PI3K γ
T2 construct: purchased Sigma
T2 sequence (P48736 whole entry): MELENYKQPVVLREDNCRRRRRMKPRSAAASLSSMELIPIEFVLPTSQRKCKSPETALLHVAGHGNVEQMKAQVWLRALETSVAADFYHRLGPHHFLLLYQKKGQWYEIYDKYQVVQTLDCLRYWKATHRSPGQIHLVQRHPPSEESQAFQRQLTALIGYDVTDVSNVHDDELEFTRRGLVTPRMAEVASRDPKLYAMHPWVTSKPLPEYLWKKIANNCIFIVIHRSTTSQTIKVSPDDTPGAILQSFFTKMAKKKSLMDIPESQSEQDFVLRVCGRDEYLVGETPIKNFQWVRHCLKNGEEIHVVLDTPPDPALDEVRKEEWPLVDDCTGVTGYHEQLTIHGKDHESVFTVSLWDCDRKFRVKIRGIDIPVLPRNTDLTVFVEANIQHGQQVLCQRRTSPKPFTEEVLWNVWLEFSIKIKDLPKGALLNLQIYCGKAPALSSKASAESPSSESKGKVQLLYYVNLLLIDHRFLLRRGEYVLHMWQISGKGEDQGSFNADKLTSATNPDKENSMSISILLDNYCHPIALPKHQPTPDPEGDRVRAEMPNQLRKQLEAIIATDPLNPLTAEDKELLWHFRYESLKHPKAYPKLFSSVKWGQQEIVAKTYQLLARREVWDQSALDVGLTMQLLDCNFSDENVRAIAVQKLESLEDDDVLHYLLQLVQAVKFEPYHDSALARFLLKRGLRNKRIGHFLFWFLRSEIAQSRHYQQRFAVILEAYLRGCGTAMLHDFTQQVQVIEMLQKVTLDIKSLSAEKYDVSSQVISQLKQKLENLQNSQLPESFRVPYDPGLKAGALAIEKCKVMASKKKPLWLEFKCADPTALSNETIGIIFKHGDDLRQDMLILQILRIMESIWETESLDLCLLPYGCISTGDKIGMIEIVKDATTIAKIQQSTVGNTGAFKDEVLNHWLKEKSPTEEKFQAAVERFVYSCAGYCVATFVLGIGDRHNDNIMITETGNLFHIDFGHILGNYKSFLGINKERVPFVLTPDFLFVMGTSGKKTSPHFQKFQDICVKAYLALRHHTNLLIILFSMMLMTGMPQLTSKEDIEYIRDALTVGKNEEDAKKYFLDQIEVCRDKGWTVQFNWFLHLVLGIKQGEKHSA
Description: as §1

PI3K β = PI3K β (Homo sapiens, UniProt P42338); assay: In vitro IC50, PI3K β
PI3K β, sequence (P42338 whole entry): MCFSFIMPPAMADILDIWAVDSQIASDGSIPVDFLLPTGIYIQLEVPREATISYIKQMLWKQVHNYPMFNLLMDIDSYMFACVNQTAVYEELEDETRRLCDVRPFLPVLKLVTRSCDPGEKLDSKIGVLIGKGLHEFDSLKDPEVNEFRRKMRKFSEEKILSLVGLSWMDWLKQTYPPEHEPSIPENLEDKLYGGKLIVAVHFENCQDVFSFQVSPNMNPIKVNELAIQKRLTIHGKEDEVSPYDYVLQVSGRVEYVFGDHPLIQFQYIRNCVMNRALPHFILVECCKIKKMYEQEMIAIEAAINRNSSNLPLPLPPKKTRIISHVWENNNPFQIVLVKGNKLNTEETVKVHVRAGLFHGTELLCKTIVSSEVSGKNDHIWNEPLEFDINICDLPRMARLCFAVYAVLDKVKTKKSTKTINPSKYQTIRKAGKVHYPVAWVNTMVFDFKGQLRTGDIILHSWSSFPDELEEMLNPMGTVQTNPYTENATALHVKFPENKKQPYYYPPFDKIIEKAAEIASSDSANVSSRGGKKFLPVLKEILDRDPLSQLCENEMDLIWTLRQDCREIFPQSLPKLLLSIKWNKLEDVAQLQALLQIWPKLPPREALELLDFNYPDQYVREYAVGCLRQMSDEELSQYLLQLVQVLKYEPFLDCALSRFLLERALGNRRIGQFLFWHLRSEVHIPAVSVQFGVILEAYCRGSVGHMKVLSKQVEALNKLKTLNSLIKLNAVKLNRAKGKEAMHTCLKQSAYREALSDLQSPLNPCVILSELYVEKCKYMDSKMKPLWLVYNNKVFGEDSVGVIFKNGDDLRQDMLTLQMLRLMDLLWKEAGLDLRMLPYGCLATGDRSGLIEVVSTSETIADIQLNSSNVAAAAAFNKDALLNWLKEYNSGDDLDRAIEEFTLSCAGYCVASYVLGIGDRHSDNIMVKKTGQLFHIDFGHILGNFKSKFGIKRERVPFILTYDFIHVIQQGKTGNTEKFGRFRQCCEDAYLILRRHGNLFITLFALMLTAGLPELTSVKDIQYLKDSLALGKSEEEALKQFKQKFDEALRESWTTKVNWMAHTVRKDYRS
Description: as §1

T1 sequence (P42336 whole entry): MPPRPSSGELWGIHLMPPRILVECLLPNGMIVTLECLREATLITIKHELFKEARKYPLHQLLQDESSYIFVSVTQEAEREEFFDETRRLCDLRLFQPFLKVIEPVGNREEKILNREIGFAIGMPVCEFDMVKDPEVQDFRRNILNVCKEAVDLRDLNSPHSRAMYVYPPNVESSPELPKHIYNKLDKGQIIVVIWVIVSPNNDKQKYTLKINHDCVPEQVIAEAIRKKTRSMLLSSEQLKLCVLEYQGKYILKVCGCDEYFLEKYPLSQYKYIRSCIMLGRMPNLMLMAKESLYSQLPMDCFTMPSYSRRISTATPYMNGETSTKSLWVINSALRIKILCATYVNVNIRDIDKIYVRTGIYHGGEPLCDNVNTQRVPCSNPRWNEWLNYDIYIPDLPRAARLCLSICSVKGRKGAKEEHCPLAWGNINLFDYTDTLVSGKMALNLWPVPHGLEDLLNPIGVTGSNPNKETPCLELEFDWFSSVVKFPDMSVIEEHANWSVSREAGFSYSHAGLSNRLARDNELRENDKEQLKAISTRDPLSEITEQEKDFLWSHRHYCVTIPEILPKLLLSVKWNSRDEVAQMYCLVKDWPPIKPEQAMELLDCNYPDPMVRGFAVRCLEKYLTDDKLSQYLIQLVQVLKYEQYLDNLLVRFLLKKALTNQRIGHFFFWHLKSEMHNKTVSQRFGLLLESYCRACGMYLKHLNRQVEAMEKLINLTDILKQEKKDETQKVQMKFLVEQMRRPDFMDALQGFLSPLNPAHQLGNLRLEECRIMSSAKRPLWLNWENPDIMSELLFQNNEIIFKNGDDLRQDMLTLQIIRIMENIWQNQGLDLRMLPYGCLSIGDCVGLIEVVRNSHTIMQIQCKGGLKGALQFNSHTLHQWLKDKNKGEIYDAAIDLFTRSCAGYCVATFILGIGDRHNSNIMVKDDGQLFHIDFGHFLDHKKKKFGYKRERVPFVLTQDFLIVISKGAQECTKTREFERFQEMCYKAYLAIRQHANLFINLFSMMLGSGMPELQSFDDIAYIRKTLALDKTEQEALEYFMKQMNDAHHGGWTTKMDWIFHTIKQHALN
T1 sequence (P27986 whole entry partner): as the sequence (P27986 whole entry partner) above

IC50 (PI3K α) [nM] | IC50 (PI3K δ) [nM] | IC50 (PI3K γ) | IC50 (PI3K β) [nM] | Structure (SMILES)
> 10000 | < 1000 | < 10000 nM | > 10000 | COC(=O)c1nn(CC2=Cc3cccc(C)c3C(=O)C2c2ccccc2C)c2ncnc(N)c12 (stereo not drawn) [Compound 299]
> 10000 | < 100 | < 1000 nM | < 10000 | CCC(Nc1ncnc2[nH]cnc12)c1cc2cccc(C)c2c(=O)n1C1CCC1 (stereo not drawn) [Compound 212]
< 10000 | < 100 | < 100 nM | < 1000 | CC(=O)Nc1nc2cc(-c3nn(Cc4cc5cccc(C)c5c(=O)n4-c4ccccc4C)c4ncnc(N)c34)ccc2o1 [Compound 251]
< 10000 | < 100 | < 100 nM | < 100 | Cc1cccc2cc([C@H](C)Nc3ncnc4[nH]nc(C#N)c34)n(-c3ccccc3)c(=O)c12 [Compound 255]
> 10000 | < 100 | < 1000 nM | < 100 | Cc1cccc2cc([C@H](C)Nc3nc(Cl)nc4[nH]cnc34)n(C3CC3)c(=O)c12 [Compound 268]
> 10000 | < 1000 | < 1000 nM | > 10000 | CC(=O)Nc1nc2cc(-c3nn(Cc4cc5cccc(C)c5c(=O)n4-c4ccccc4)c4ncnc(N)c34)ccc2s1 [Compound 275]
> 10000 | < 1000 | < 100 nM | > 10000 | Cc1cccc2cc(Cn3nc(-c4ccc(O)c(F)c4)c4c(N)ncnc43)n(-c3ccccc3F)c(=O)c12 [Compound 29]
< 1000 | < 100 | < 100 nM | < 100 | Cc1cccc2cc([C@H](C)Nc3ncnc4[nH]cc(Br)c34)n(-c3ccccc3)c(=O)c12 [Compound 257]
< 10000 | < 100 | < 100 nM | < 1000 | Cc1cccc2cc(Cn3nc(-c4cc(O)cc(F)c4)c4c(N)ncnc43)n(-c3ccccc3Cl)c(=O)c12 [Compound 97]
> 10000 | > 10000 | < 10000 nM | > 10000 | Cc1cccc2cc([C@@H](C)Nc3ncnc4[nH]cnc34)n(C3CCC3)c(=O)c12 [Compound 197]
> 10000 | < 100 | < 100 nM | < 1000 | Cc1cccc2cc(Cn3nc(-c4cccc(O)c4)c4c(N)ncnc43)n(C(C)C)c(=O)c12 [Compound 62]
> 10000 | < 1000 | > 10000 nM | > 10000 | Cc1ccccc1-n1c(Cn2nc(C#C[C@@H](C)O)c3c(N)ncnc32)cc2cccc(F)c2c1=O [Compound 43]
> 10000 | – | < 100 nM | > 10000 | CC(=O)Nc1nc2ccc(-c3nn(Cc4cc5cccc(C)c5c(=O)n4-c4ccccc4)c4ncnc(N)c34)cc2[nH]1 [Compound 304]
– | < 100 | < 100 nM | > 10000 | Cc1ccccc1-n1c(Cn2nc(CF)c3c(N)ncnc32)cc2cccc(C)c2c1=O [Compound 310]
> 10000 | < 1000 | > 10000 nM | > 10000 | Cc1cccnc1-n1c(Cn2nc(C#C[C@@H](C)O)c3c(N)ncnc32)cc2cccc(C)c2c1=O [Compound 69]
– | < 100 | < 1000 nM | > 10000 | Cc1ccncc1-n1c(Cn2nc(I)c3c(N)ncnc32)cc2cccc(C)c2c1=O [Compound 78]
– | < 100 | < 100 nM | < 100 | Cc1cccc2cc([C@H](C)Nc3ncnc4[nH]cnc34)n(C3CC3)c(=O)c12 [Compound 200]
< 100 | < 100 | – | < 100 | CC(=O)Nc1nc2ccc(-c3nn(Cc4cc5cccc(Cl)c5c(=O)n4C4CC4)c4ncnc(N)c34)cc2s1 [Compound 156]
– | < 100 | < 1000 nM | > 10000 | Cc1cccc2cc(Cn3nc(I)c4c(N)ncnc43)n(-c3ccccc3Cl)c(=O)c12 [Compound 76]
> 10000 | – | < 100 nM | < 10000 | Cc1ccccc1-n1c(Cn2nc(-c3cccc(O)c3)c3c(N)ncnc32)cc2cccc(C)c2c1=O [Compound 13]
– | < 100 | < 100 nM | < 10000 | CCc1ccccc1-n1c(Cn2nc(I)c3c(N)ncnc32)cc2cccc(C)c2c1=O [Compound 77]
– | < 100 | < 100 nM | > 10000 | Cc1cccc2cc(Cn3nc(CF)c4c(N)ncnc43)n(-c3ccccc3)c(=O)c12 [Compound 311]
< 10000 | < 100 | – | < 10000 | Cc1cccc2cc(Cn3nc(-c4cc(O)cc(F)c4)c4c(N)ncnc43)n(C3CCC3)c(=O)c12 [Compound 115]
> 10000 | < 100 | – | < 10000 | Cc1cccc2cc(Cn3nc(-c4cccc(O)c4)c4c(N)ncnc43)n(C3CCCCC3)c(=O)c12 [Compound 111]

IC50 (PI3K α) [nM] | IC50 (PI3K δ) [nM] | IC50 (PI3K γ) | IC50 (PI3K β) [nM] | Structure (SMILES)
< 100 | < 100 | – | < 10000 | CC(=O)Nc1nc2ccc(-c3nn(Cc4cc5cccc(C)c5c(=O)n4C(C)C)c4ncnc(N)c34)cc2s1 [Compound 154]
< 100 | < 100 | – | < 100 | CC(=O)Nc1nc2ccc(-c3nn(Cc4cc5cccc(C)c5c(=O)n4C4CC4)c4ncnc(N)c34)cc2s1 [Compound 155]
< 100 | < 100 | – | < 10000 | CC(=O)Nc1nc2ccc(-c3nn(Cc4cc5cccc(F)c5c(=O)n4C(C)C)c4ncnc(N)c34)cc2s1 [Compound 158]
– | < 10000 | > 10000 nM and < 10000 nM | > 10000 | Cc1cccc2cc(Cn3nc(-c4cccc(Cl)c4)c4c(N)ncnc43)n(-c3ccccc3F)c(=O)c12 [Compound 38]
– | < 10000 | – | > 10000 | CCC(Nc1ncnc2[nH]cnc12)c1cc2cccc(C)c2c(=O)n1-c1c(F)cccc1F (stereo not drawn) [Compound 217]
> 10000 | < 100 | – | > 10000 | Cc1cccc2cc(Cn3nc(C#C[C@@H](C)O)c4c(N)ncnc43)n(C3CCCCC3)c(=O)c12 [Compound 112]
< 100 | < 100 | – | < 100 | CC(=O)Nc1nc2ccc(-c3nn(Cc4cc5cccc(Cl)c5c(=O)n4C(C)C)c4ncnc(N)c34)cc2s1 [Compound 157]
– | < 100 | < 10000 nM | > 10000 | Cc1ccccc1-n1c(Cn2nc(CC#N)c3c(N)ncnc32)cc2cccc(C)c2c1=O [Compound 312]
> 10000 | < 1000 | – | < 10000 | Cc1ccccc1-n1c(Cn2nc(C#C[C@H](C)O)c3c(N)ncnc32)cc2cccc(C)c2c1=O [Compound 85]
< 100 | < 100 | – | < 1000 | CC(=O)Nc1nc2ccc(-c3nn(Cc4cc5cccc(C)c5c(=O)n4C4CCC4)c4ncnc(N)c34)cc2s1 [Compound 159]
< 100 | < 100 | – | < 1000 | CC(=O)Nc1nc2ccc(-c3nn(Cc4cc5cccc(C)c5c(=O)n4C)c4ncnc(N)c34)cc2s1 [Compound 153]
> 10000 | – | < 1000 nM | > 10000 | Cc1ccccc1-n1c(Cn2nc(-c3cnn(CCO)c3)c3c(N)ncnc32)cc2cccc(C)c2c1=O [Compound 163]
> 10000 | – | < 10000 nM | > 10000 | Cc1ccccc1-n1c(CN(C)c2ncnc3[nH]cnc23)cc2cccc(C)c2c1=O [Compound 184]
– | < 100 | < 100 nM | < 10000 | Cc1cccc2cc(Cn3nc(I)c4c(N)ncnc43)n(-c3ccccc3C(C)C)c(=O)c12 [Compound 75]
– | < 100 | < 100 nM | < 10000 | CC(=O)Nc1nc2ccc(-c3nn(Cc4cc5cccc(C)c5c(=O)n4-c4cccc(F)c4)c4ncnc(N)c34)cc2s1 [Compound 178]
> 10000 | < 100 | – | < 10000 | Cc1cccc2cc(Cn3nc(-c4cc(O)cc(F)c4)c4c(N)ncnc43)n(C3CCCCC3)c(=O)c12 [Compound 110]
> 10000 | < 100 | < 100 nM | – | Cc1ccccc1-n1c(Cn2nc(-c3cc(O)cc(F)c3)c3c(N)ncnc32)cc2ccccc2c1=O [Compound 33]
> 10000 | < 1000 | > 10000 nM | – | Cc1cccnc1-n1c(Cn2nc(Cl)c3c(N)ncnc32)cc2cccc(C)c2c1=O [Compound 18]
> 10000 | < 1000 | < 10000 nM | – | Cc1cccc2cc(Cn3nc(-c4ccc5nc(N)cn5c4)c4c(N)ncnc43)n(-c3ccccc3)c(=O)c12 [Compound 239]
> 10000 | < 100 | – | < 10000 | Cc1cccc2cc(Cn3nc(-c4cccc(O)c4)c4c(N)ncnc43)n(C3CCC3)c(=O)c12 [Compound 114]
> 10000 | < 1000 | < 1000 nM | – | CNc1ncc(Cl)c(N[C@@H](C)c2cc3cccc(C)c3c(=O)n2-c2ccccc2)n1 [Compound 250]
> 10000 | < 100 | < 100 nM | – | Cc1cccnc1-n1c(Cn2nc(-c3cc(O)cc(F)c3)c3c(N)ncnc32)cc2cccc(C)c2c1=O [Compound 16]
> 10000 | < 10000 | < 10000 nM | – | Cc1nc2c(N[C@@H](C)c3cc4cccc(C)c4c(=O)n3-c3ccccc3)ncnc2[nH]1 [Compound 242]

Structure (SMILES) | IC50 (PI3K α) [nM] | IC50 (PI3K δ) [nM] | IC50 (PI3K γ) | IC50 (PI3K β) [nM]
Cc1ccccc1-n1c(Cn2nc(C(N)=O)c3c(N)ncnc32)cc2cccc(C)c2c1=O [Compound 298] | > 10000 | < 1000 | < 1000 nM | < 10000
CC(=O)Nc1nc2ccc(-c3nn(Cc4cc5cccc(C)c5c(=O)n4-c4ccccc4C)c4ncnc(N)c34)cc2s1 [Compound 53] | < 1000 | – | < 100 nM | < 10000
Cc1ccccc1-n1c(Cn2nc(-c3cc(O)cc(F)c3)c3c(N)ncnc32)cc2cccc(C)c2c1=O [Compound 7] | < 10000 | – | – | < 1000
CC(=O)c1nn(Cc2cc3cccc(C)c3c(=O)n2-c2ccccc2)c2ncnc(N)c12 [Compound 319] | > 10000 | < 1000 | < 10000 nM | –
